IC50 data for 41 molecules are collected here from ChEMBL document CHEMBL1177756, “Design and synthesis of 1,4,5,6-tetrahydropyrrolo[3,4-c]pyrazoles and pyrazolo[3,4-b]pyridines for Aurora-A kinase inhibitors” (Bioorg Med Chem Lett, 2010).

Structures are written as SMILES. pIC50: −log10 of the molar value. A value given as a limit tells only on which side of the number the result lay.

Common to all, as to assay type: functional, cell-based
The test system of experiment [1] is A549. Kind of experiment: Cytotoxicity against human A549 cells after 48 hrs by MTT assay. The settings on record: A549, 48 h. Background: Formazan colour is commonly taken as a measure of viable cells.
Experiment [2] concerns HCT-116. Kind of experiment: Cytotoxicity against human HCT116 cells after 48 hrs by MTT assay. As to conditions: HCT-116, 48 h.
For experiment [3], the system named is A2780. Nature of the experiment: Cytotoxicity against human A2780 cells after 48 hrs by MTT assay. As to conditions: A2780, 48 h.

The pIC50 is −log10 of the IC50, conventionally taken in molar units. Lower therefore signals a high IC50. Regarding `O=C(Nc1n[nH]c2ncc(Br)cc12)c1ccco1`, the pIC50 was 4.21 in experiment [1], 4.36 in experiment [2] and 4.38 in experiment [3].
With `O=C(Nc1n[nH]c2ncc(Br)cc12)c1ccc(Cl)cc1`, the negative logarithm of the IC50 (pIC50) is 4.29 in experiment [1], 4.46 in experiment [2] and 4.29 in experiment [3].
Turning to `CC(=O)c1ncccc1N1Cc2[nH]nc(NC(=O)c3ccccc3)c2C1`, the pIC50 is 3.76 in experiment [1], 3.77 in experiment [2] and below 3.70 in experiment [3].
On the same counts, the results for `Cc1ccccc1C(=O)Nc1n[nH]c2ncc(Br)cc12` are below 3.70, 4.29 and below 3.70.
In the case of `Cc1ccc(C(=O)Nc2n[nH]c3c2CN(C(=O)c2ccccn2)C3)cc1`, the pIC50 in experiment [1], in experiment [2] and in experiment [3] was below 3.70 in each case.
Take `COc1cc(OC)cc(C(=O)Nc2n[nH]c3c2CN(C(=O)[C@@H](O)c2ccccc2)C3)c1`: the figures for the negative-log IC50 (pIC50) in experiment [1], in experiment [2] and in experiment [3] were 4.12, 3.84 and below 3.70, respectively.
In the case of `Cc1ccc(C(=O)N2Cc3[nH]nc(NC(=O)c4ccco4)c3C2)cc1`, the pIC50 in experiment [1], in experiment [2] and in experiment [3] was below 3.70 each time.
Take `Cc1cccc(C(=O)Nc2n[nH]c3ncc(Br)cc23)c1`: the pIC50 in experiment [1] is below 3.70; in experiment [2] it was 4.59; in experiment [3], 4.30.
With `COc1ccc(C(=O)Nc2n[nH]c3c2CN(C(=O)[C@@H](OC)c2ccccc2)C3)cc1`, the pIC50 in experiment [1] was 4.14; in experiment [2], 3.68; in experiment [3] it was below 3.70.
Take `COc1ccccc1C(=O)Nc1n[nH]c2ncc(Br)cc12`: the figures for the pIC50 in experiment [1], in experiment [2] and in experiment [3] were below 3.70, 4.81 and 4.57, respectively.
On to `CC(=O)O[C@H](C(=O)N1Cc2[nH]nc(NC(=O)c3cc4c(c(OCc5ccccc5)c3)OCO4)c2C1)c1ccccc1`, for which the pIC50 in experiment [1], in experiment [2] and in experiment [3] was below 3.70 in each case.
On to `O=C(Nc1n[nH]c2ncc(Br)cc12)c1ccccn1`, for which the results for the pIC50 in experiment [1], in experiment [2] and in experiment [3] were 4.34, 4.84 and 4.33, respectively.
Regarding `O=C(Nc1n[nH]c2ncc(Br)cc12)c1ccccc1Cl`, the pIC50 in experiment [1] is below 3.70; in experiment [2] it was 4.49; in experiment [3], 4.33.
In the same order, the values of `O=C(Nc1n[nH]c2ncc(Br)cc12)c1cc(Cl)cc(Cl)c1` are below 3.70, 4.31 and below 3.70.
On the same counts, the results for `Cc1ccc(C(=O)Nc2n[nH]c3c2CN(C(=O)[C@@H](O)c2ccccc2)C3)cc1` are 4.38, 4.89 and 4.09.
As to `COc1cc(OC)cc(C(=O)Nc2n[nH]c3c2CN(c2cccnc2C(C)=O)C3)c1`, the pIC50 in experiment [1] is 3.79; in experiment [2], 3.97; in experiment [3] it was below 3.70.
Consider `COc1cc(OC)cc(C(=O)Nc2n[nH]c3c2CN(C(=O)c2ccccn2)C3)c1`, for which the pIC50 in experiment [1] is below 3.70; in experiment [2], 3.63; in experiment [3] it was below 3.70.
With `O=C(Nc1n[nH]c2c1CN(C(=O)[C@@H](O)c1ccccc1)C2)c1ccc2c(c1)OCO2`, the negative logarithm of the IC50 (pIC50) is 4.08 in experiment [1], 3.87 in experiment [2] and below 3.70 in experiment [3].
Take `CO[C@H](C(=O)N1Cc2[nH]nc(NC(=O)c3ccc4c(c3)OCO4)c2C1)c1ccccc1`: the pIC50 in experiment [1], in experiment [2] and in experiment [3] was below 3.70 each time.
As for `CO[C@H](C(=O)N1Cc2[nH]nc(NC(=O)c3cc4c(c(OCc5ccccc5)c3)OCO4)c2C1)c1ccccc1`, the negative logarithm of the IC50 (pIC50) in experiment [1], in experiment [2] and in experiment [3] was below 3.70 each time.
In the case of `O=C(Nc1n[nH]c2ncc(Br)cc12)c1ccc(C(F)(F)F)cc1`, the results for the negative logarithm of the IC50 (pIC50) in experiment [1], in experiment [2] and in experiment [3] were below 3.70, 4.66 and below 3.70, respectively.
Consider `O=C(Nc1n[nH]c2c1CN(C(=O)[C@@H](O)c1ccccc1)C2)c1ccco1`, for which the pIC50 in experiment [1] was 4.60; in experiment [2] it was 5.40; in experiment [3], 4.46.
Turning to `CO[C@H](C(=O)N1Cc2[nH]nc(NC(=O)c3ccco3)c2C1)c1ccccc1`, the pIC50 in experiment [1], in experiment [2] and in experiment [3] was below 3.70 in each case.
As for `O=C(Nc1n[nH]c2ncc(Br)cc12)c1ccc(F)cc1`, the pIC50 was below 3.70 in experiment [1], 4.36 in experiment [2] and 4.30 in experiment [3].
Consider `CC(=O)c1ncccc1N1Cc2[nH]nc(NC(=O)c3ccc4c(c3)OCO4)c2C1`, for which the pIC50 in experiment [1], in experiment [2] and in experiment [3] was below 3.70 each time.
Regarding `CO[C@H](C(=O)N1Cc2[nH]nc(NC(=O)c3ccc4ccccc4c3)c2C1)c1ccccc1`, the pIC50 is 4.80 in experiment [1], 4.42 in experiment [2] and 4.64 in experiment [3].
For the molecule `Cc1ccc(C(=O)Nc2n[nH]c3ncc(Br)cc23)cc1`, the figures for the pIC50 in experiment [1], in experiment [2] and in experiment [3] were below 3.70, 4.40 and below 3.70, respectively.
In the case of `COc1ccc(C(=O)Nc2n[nH]c3ncc(Br)cc23)cc1`, the pIC50 in experiment [1] is below 3.70; in experiment [2], 4.60; in experiment [3] it was below 3.70.
Consider `COc1cc(OC)cc(C(=O)Nc2n[nH]c3ncc(Br)cc23)c1`, for which the results for the pIC50 in experiment [1], in experiment [2] and in experiment [3] were 4.27, 4.71 and 4.42, respectively.
For `CO[C@H](C(=O)N1Cc2[nH]nc(NC(=O)c3ccccc3)c2C1)c1ccccc1`, the pIC50 was below 3.70 in experiment [1], 4.59 in experiment [2] and below 3.70 in experiment [3].
On to `O=C(Nc1n[nH]c2ncc(Br)cc12)c1ccccc1C(F)(F)F`, for which the results for the pIC50 in experiment [1], in experiment [2] and in experiment [3] were 4.12, 4.39 and below 3.70, respectively.
With `O=C(Nc1n[nH]c2c1CN(C(=O)c1ccccn1)C2)c1ccc2c(c1)OCO2`, the negative logarithm of the IC50 (pIC50) was 3.93 in experiment [1], below 3.70 in experiment [2] and below 3.70 in experiment [3].
Consider `Cc1cccnc1C(=O)Nc1n[nH]c2ncc(Br)cc12`, for which the pIC50 in experiment [1] is below 3.70; in experiment [2], 4.64; in experiment [3], below 3.70.
As for `O=C(Nc1n[nH]c2c1CN(C(=O)c1ccco1)C2)c1ccc2ccccc2c1`, the pIC50 in experiment [1] is 4.47; in experiment [2] it was 4.35; in experiment [3], 4.27.
As to `COc1cc(OC)cc(C(=O)Nc2n[nH]c3c2CN(C(=O)[C@@H](OC)c2ccccc2)C3)c1`, the negative-log IC50 (pIC50) is 4.00 in experiment [1], 3.99 in experiment [2] and below 3.70 in experiment [3].
In the case of `O=C(Cc1ccc(Br)cc1)Nc1n[nH]c2ncc(Br)cc12`, the pIC50 is 4.37 in experiment [1], 4.50 in experiment [2] and 4.64 in experiment [3].
As for `CO[C@H](C(=O)N1Cc2[nH]nc(NC(=O)c3ccc(N4CCN(C)CC4)cc3)c2C1)c1ccccc1`, the pIC50 in experiment [1] is 4.37; in experiment [2], 4.89; in experiment [3] it was 4.96.
On to `COc1ccc(C(=O)Nc2n[nH]c3c2CN(C(=O)c2ccccn2)C3)cc1`, for which the negative logarithm of the IC50 (pIC50) in experiment [1], in experiment [2] and in experiment [3] was below 3.70 each time.
`CC(=O)N1Cc2[nH]nc(NC(=O)c3ccc4ccccc4c3)c2C1`: the negative logarithm of the IC50 (pIC50) in experiment [1], in experiment [2] and in experiment [3] was below 3.70 in each case.
`Cc1ccc(C(=O)N2Cc3[nH]nc(NC(=O)c4ccc5ccccc5c4)c3C2)cc1`: the pIC50 in experiment [1], in experiment [2] and in experiment [3] was below 3.70 each time.
Consider `O=C(Nc1n[nH]c2c1CN(C(=O)c1ccccn1)C2)c1cc2c(c(OCc3ccccc3)c1)OCO2`, for which the pIC50 in experiment [1] is below 3.70; in experiment [2], 3.98; in experiment [3], below 3.70.
